Activity calls are given as the source filed them.
How the values were obtained:
[1] = target: T1, Cysteine protease ATG4B (Homo sapiens, UniProt Q9Y4P1); format: functional;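 further: Fluorescence-based dose-response confirmation assay measuring inhibition of ATG4B activity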
T1 sequence (Q9Y4P1 whole entry): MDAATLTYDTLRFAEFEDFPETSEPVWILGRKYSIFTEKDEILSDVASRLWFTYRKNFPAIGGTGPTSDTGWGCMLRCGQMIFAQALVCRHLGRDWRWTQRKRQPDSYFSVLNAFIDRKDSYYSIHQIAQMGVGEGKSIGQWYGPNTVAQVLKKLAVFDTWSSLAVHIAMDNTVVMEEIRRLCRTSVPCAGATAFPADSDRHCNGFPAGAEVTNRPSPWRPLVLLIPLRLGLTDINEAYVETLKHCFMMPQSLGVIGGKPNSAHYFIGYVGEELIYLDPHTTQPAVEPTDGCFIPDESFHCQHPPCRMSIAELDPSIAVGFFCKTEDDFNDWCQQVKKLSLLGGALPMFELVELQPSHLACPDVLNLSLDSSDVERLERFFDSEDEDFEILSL

[2] = target: Phospholipase A2 (Homo sapiens, UniProt P04054); format: functional;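 further: confirmatory dose-response counterscreen on phospholipase A2, testing hits that came from an ultra-high-throughput screen for ATG4B inhibitors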
Chain of Phospholipase A2 (P04054 whole entry): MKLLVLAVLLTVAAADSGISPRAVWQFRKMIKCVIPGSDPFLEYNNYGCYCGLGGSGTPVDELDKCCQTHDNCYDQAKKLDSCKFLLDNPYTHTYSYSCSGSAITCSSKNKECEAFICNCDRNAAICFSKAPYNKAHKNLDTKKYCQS

[3] = target: T2, SUMO-activating enzyme (Homo sapiens, UniProt Q9UBT2); test: SUMOylation inhibitor hit validation, confirmation, SUMOylation inhibitor project, biochemical, AlphaScreen (AID 2018); format: functional
T2 sequence (Q9UBE0 whole entry): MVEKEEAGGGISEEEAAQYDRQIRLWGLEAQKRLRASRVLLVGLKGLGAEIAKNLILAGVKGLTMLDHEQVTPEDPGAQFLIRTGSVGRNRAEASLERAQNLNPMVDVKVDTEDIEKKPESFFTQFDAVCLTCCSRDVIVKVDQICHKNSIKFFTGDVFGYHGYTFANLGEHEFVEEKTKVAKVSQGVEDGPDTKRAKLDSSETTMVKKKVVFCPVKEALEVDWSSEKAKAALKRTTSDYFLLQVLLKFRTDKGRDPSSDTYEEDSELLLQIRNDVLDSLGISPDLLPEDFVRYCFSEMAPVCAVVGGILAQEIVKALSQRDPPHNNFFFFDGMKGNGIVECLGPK
T2 sequence (Q9UBT2 whole entry): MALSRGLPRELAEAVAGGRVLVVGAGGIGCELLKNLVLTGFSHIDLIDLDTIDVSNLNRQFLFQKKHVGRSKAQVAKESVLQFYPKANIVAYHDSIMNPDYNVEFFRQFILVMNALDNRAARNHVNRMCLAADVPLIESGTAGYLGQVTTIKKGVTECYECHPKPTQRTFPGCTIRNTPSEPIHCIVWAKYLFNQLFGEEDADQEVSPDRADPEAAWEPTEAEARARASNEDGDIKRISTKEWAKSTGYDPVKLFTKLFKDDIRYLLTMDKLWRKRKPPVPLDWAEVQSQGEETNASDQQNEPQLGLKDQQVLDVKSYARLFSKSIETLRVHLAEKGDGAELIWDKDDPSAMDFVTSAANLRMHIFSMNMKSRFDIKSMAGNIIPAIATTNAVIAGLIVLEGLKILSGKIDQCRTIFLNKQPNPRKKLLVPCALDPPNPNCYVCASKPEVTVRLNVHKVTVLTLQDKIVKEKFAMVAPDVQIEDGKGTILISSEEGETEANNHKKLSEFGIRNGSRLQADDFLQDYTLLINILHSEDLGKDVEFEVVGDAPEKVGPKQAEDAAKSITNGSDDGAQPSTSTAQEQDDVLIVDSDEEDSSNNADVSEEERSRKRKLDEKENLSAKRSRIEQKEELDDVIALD

[4] = target: T2, SUMO-activating enzyme; test: inhibitors of in vitro SUMOylation cascade, primary screen, biochemical, HTRF, uHTS (AID 2006); format: protein-complex assay
[5] = target: Induced myeloid leukemia cell differentiation protein Mcl-1 (Homo sapiens, UniProt Q07820); format: functional
Chain of Induced myeloid leukemia cell differentiation protein Mcl-1 (Q07820 whole entry): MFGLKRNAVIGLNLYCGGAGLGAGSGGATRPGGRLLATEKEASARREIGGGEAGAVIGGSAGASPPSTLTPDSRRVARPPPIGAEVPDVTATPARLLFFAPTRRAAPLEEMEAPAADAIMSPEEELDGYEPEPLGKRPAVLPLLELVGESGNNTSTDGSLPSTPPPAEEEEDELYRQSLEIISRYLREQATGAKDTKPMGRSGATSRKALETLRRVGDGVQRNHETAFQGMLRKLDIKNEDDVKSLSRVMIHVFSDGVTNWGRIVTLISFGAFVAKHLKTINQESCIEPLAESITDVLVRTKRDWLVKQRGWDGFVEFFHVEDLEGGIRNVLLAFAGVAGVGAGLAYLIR

[6] = target: DNA (cytosine-5)-methyltransferase 1 (Homo sapiens, UniProt P26358); test: DNMT1 methyltransferase inhibitors, confirmation, biochemical, fluorescent molecular beacon (AID 602386); format: functional
Chain of DNA (cytosine-5)-methyltransferase 1 (P26358 whole entry): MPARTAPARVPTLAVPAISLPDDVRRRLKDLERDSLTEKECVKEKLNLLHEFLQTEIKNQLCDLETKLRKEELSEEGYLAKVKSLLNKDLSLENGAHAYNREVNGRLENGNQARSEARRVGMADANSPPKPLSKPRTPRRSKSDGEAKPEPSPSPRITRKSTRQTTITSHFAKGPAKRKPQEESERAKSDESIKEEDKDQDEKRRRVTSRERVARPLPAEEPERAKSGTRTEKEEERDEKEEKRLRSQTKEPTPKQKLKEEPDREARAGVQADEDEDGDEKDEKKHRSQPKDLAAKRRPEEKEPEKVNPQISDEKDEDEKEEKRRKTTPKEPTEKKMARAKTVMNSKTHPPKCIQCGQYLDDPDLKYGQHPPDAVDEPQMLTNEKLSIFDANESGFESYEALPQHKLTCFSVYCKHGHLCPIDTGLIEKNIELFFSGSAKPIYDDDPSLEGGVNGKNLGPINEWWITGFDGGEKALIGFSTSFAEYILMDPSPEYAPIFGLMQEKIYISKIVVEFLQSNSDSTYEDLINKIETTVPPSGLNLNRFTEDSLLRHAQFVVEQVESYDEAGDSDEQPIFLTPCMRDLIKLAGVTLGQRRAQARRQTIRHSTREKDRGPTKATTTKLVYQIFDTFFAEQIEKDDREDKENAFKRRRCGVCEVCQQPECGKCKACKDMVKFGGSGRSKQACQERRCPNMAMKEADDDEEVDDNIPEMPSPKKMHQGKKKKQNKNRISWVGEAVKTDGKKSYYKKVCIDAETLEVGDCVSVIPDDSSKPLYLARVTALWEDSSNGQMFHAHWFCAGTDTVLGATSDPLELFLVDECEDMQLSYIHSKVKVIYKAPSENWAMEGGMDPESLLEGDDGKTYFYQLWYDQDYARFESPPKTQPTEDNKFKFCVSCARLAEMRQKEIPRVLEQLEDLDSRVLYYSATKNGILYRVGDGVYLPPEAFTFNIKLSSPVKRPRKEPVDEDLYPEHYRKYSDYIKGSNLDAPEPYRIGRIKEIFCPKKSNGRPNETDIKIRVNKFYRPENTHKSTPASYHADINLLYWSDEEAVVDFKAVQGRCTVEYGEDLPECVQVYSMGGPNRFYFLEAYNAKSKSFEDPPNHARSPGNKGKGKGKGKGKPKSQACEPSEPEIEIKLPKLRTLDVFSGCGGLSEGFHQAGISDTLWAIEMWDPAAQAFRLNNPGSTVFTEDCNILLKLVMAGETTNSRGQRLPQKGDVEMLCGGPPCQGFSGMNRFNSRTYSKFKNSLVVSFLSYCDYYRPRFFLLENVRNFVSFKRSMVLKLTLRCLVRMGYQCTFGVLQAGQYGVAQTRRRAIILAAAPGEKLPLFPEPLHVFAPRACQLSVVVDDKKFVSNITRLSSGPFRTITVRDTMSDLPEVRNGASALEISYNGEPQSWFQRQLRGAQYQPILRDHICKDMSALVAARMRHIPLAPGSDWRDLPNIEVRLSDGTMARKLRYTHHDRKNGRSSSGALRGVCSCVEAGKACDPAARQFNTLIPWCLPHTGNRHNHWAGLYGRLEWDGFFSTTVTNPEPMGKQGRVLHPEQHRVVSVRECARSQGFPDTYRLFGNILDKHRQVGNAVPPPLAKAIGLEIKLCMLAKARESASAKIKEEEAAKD

[7] = target: T3, Caspase-6 (Homo sapiens, UniProt P55212); test: human caspase-6 inhibitors, dose response, biochemical, VEID-R110 fluorescence, cherry-pick (AID 720632)
T3 sequence (P55212 whole entry): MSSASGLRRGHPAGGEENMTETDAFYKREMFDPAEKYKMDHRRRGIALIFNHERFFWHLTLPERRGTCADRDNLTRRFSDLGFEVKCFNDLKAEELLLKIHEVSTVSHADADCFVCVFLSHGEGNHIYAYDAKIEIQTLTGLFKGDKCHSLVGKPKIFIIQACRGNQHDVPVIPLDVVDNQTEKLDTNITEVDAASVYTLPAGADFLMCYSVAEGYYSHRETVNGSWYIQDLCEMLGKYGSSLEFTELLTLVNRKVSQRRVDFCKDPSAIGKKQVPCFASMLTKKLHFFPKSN

[8] = target: Beta-2 adrenergic receptor (Homo sapiens, UniProt P07550); test: beta2AR agonists driving receptor internalization, dose response, cell-based, FAP fluorogen, flow cytometry, cherry pick 1 (AID 588763); format: functional
Chain of Beta-2 adrenergic receptor (P07550 whole entry): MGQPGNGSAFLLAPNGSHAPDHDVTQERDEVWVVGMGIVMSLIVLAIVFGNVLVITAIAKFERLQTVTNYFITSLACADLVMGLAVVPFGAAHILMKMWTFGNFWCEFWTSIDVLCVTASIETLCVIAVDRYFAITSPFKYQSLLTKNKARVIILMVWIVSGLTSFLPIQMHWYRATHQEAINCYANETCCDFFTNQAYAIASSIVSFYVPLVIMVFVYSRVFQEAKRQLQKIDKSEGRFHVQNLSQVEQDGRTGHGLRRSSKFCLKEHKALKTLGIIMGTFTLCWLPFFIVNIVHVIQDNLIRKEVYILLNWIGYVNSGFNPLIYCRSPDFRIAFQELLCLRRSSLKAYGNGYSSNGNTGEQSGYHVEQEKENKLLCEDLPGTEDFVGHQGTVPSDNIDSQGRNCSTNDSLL

[9] = NIH-3T3 fibroblast cytotoxicity, dose response, cytotoxicity control, cell-based, fluorescence, Alamar Blue, secondary assay (AID 2327); format: functional;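 further: NIH-3T3 mouse fibroblasts cultured with fluconazole at 8 µg/mL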
[10] = HEp-2 cell cytotoxicity, dose response, cytotoxicity control for RSV inhibitor project, HTS (AID 2410); format: functional; conditions: human respiratory syncytial virus
[11] = C. albicans growth with fluconazole, confirmation, fluorescence, retest (AID 2467); format: functional, cell-based
[12] = target: T4, Caspase-3 (Homo sapiens, UniProt P42574); format: functional;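 further: Dose-response selectivity test against caspase-3 for candidate inhibitors of sentrin-specific proteases (SENPs)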
T4 sequence (P42574 whole entry): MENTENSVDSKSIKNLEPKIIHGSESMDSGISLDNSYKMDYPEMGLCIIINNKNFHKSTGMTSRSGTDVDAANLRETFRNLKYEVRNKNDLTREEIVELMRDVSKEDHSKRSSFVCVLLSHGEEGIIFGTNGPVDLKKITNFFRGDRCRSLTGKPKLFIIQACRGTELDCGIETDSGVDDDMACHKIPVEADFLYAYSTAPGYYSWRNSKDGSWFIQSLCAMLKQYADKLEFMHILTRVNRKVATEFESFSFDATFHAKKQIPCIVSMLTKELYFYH

[13] = target: T5, Sentrin-specific protease 7 (Homo sapiens, UniProt Q9BQF6); format: functional;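 further: Luminescence-based dose-response confirmation of ultra-high-throughput screening hits, measuring inhibition of SENP7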
T5 sequence (Q9BQF6 whole entry): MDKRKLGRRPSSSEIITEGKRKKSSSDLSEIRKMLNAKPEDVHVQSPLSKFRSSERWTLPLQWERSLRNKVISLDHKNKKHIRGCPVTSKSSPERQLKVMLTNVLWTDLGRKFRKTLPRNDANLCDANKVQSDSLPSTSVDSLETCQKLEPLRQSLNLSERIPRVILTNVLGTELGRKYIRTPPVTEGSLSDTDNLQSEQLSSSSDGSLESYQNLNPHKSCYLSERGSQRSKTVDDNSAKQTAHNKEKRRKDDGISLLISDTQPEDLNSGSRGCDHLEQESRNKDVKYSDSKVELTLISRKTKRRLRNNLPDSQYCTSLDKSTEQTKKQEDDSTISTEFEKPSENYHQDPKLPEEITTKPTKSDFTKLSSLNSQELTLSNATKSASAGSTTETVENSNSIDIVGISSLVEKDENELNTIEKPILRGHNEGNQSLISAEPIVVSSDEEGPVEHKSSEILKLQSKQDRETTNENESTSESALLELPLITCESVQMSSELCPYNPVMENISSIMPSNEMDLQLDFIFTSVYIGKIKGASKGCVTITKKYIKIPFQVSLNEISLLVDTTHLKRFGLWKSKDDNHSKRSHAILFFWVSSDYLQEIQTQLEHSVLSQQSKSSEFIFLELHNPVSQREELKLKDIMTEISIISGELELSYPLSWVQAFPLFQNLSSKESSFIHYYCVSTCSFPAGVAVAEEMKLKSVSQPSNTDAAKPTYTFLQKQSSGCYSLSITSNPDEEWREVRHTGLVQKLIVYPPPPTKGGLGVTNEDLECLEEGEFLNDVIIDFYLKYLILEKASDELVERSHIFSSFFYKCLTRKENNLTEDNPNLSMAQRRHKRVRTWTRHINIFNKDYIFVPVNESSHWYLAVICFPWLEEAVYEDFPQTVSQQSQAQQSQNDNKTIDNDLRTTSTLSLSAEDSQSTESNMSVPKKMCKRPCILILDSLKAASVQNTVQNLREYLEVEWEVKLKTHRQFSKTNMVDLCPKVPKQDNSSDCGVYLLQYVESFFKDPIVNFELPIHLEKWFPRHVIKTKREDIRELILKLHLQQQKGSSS

[14] = target: T6, Sentrin-specific protease 6 (Homo sapiens, UniProt Q9GZR1); format: functional;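 further: Luminescence-based dose-response confirmatory assay of SENP6 inhibition, following up an ultra-high-throughput screen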
T6 sequence (Q9GZR1 whole entry): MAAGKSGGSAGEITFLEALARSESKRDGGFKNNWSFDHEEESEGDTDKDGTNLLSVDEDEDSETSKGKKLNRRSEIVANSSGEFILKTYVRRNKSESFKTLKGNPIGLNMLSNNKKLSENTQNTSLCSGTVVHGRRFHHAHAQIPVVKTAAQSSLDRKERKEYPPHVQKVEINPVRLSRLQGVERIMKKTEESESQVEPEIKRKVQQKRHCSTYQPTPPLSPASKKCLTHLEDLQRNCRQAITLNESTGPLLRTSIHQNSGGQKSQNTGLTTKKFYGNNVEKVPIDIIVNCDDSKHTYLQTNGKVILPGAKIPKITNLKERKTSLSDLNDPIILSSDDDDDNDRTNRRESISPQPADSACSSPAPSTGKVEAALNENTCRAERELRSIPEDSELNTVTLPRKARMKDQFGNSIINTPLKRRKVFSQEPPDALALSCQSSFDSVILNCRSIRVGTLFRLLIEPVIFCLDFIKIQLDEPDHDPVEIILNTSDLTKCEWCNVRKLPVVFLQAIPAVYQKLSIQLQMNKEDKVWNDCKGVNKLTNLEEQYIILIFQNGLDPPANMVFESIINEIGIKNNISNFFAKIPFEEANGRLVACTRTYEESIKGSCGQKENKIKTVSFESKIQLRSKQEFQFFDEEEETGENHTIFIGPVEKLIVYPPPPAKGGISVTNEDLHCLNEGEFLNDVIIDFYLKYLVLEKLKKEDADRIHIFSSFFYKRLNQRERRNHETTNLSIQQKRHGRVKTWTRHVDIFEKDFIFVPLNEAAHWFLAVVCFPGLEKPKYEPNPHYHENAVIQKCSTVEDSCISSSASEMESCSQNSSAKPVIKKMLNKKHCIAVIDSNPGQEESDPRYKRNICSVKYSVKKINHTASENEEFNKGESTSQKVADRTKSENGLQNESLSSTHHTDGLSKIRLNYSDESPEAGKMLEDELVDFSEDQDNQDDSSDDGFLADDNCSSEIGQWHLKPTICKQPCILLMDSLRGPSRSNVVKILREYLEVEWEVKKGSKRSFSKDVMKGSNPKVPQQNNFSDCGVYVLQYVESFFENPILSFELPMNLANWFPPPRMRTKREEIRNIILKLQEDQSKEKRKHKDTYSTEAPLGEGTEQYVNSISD

[15] = target: FAD-linked sulfhydryl oxidase ALR (Homo sapiens, UniProt P55789); test: inhibitors of human ALR sulfhydryl oxidase, dose response, biochemical, H2O2 detection, luminescence, cherry-pick (AID 493248)
Chain of FAD-linked sulfhydryl oxidase ALR (P55789 whole entry): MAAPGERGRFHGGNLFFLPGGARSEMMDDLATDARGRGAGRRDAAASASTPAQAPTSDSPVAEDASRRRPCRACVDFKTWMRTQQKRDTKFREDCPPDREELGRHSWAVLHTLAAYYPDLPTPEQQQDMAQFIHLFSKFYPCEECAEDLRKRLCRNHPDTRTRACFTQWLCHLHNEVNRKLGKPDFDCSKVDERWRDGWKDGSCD

[16] = target: T7, Sentrin-specific protease 8 (Homo sapiens, UniProt Q96LD8); format: functional;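 further: luminescence read-out of SENP8 inhibition, dose-response confirmation following an ultra-high-throughput screen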
T7 sequence (Q96LD8 whole entry): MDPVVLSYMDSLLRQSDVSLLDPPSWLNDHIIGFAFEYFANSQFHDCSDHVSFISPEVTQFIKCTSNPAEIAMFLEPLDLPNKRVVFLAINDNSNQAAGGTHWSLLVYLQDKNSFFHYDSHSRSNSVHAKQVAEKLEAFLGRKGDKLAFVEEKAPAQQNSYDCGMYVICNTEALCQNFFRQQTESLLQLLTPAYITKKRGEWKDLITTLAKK

[17] = test system: HeLa; test: HeLa cell cytotoxicity, dose response, cytotoxicity control for MITF activator project, CellTiter-Glo luminescence, cherry-pick samples (AID 540259); format: functional, cell-based; conditions: Homo sapiens

Cc1nc2c(C(=O)NCc3ccccc3Cl)cnn2c(O)c1Cl
active: IC50 [1] 11 µM | IC50 [2] 12.6 µM

CN(c1ccccc1)c1ccc(/C=C(\CCC(=O)O)c2nc3ccccc3s2)cc1[N+](=O)[O-]
active: IC50 [3] 1.65 µM | IC50 [4] 16.8 µM | IC50 [5] 2.27 µM | IC50 [1] 4.31 µM | IC50 [2] 5.31 µM | IC50 [6] 5.34 µM | AC50 [7] 24.2 µM

Cc1ccc(CS(=O)(=O)c2nc3c(c(N(C)C)n2)CCCC3)cc1
active: EC50 [8] 0.0813 µM

CC(=O)Nc1cccc(-c2csc(Nc3ccc(C)cn3)n2)c1
active: EC50 [9] 25.8 µM | CC50 [10] > 50 µM | EC50 [11] 4.04 µM | IC50 [12] 39.7 µM | IC50 [13] 4.13 µM | IC50 [14] 12.7 µM | AC50 [15] 0.169 µM | IC50 [16] 17.5 µM | AC50 [17] 40 µM

Source: ChEMBL document CHEMBL1201862, “PubChem BioAssay data set” (2004)
